In BindingDB's records for doi:10.1016/j.bmc.2005.12.063 (Kyushu Institute of Technology, 2006):
Each block holds one compound with its values, some of them ahead of it. Peptide text beside a SMILES is read from it.

Experiments:
Assay in all cases: HDAC Enzyme Activity Assay
Conditions in all cases: pH 8; 37 °C
Histone deacetylase 6 = biological target: T1, Histone deacetylase 6 (Mus musculus, UniProt Q9Z2V5)
T1 sequence (Q9Z2V5 whole entry): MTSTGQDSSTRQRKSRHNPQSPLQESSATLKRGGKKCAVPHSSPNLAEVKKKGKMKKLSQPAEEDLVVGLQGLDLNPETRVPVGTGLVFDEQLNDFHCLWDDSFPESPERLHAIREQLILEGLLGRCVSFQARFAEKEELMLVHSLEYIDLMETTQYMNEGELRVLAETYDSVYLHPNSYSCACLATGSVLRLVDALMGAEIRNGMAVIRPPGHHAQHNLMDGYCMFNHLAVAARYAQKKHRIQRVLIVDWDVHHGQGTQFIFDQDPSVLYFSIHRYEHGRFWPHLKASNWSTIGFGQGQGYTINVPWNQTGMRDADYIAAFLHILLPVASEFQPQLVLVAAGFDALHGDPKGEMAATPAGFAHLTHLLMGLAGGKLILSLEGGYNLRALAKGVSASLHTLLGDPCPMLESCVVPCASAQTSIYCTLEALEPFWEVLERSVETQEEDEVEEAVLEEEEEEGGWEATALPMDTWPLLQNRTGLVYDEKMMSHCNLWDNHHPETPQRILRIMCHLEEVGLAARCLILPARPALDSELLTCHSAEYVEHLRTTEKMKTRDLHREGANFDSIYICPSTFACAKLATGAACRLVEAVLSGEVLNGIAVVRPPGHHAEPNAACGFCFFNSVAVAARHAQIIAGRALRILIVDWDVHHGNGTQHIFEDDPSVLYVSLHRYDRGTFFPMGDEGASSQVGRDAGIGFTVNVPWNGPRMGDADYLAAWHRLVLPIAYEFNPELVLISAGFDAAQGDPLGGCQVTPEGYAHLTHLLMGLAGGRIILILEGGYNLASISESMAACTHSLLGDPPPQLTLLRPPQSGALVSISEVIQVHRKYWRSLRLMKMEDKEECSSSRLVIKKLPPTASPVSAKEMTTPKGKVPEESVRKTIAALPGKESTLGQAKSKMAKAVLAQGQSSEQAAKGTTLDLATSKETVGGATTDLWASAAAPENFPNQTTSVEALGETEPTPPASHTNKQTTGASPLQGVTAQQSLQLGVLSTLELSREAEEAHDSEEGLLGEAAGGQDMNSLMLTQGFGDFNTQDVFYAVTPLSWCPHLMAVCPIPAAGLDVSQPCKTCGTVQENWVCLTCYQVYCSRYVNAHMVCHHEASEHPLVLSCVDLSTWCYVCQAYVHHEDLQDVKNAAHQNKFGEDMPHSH

Histone deacetylase 4 = Histone deacetylase 4 (Homo sapiens, UniProt P56524)
Chain of Histone deacetylase 4 (P56524 whole entry): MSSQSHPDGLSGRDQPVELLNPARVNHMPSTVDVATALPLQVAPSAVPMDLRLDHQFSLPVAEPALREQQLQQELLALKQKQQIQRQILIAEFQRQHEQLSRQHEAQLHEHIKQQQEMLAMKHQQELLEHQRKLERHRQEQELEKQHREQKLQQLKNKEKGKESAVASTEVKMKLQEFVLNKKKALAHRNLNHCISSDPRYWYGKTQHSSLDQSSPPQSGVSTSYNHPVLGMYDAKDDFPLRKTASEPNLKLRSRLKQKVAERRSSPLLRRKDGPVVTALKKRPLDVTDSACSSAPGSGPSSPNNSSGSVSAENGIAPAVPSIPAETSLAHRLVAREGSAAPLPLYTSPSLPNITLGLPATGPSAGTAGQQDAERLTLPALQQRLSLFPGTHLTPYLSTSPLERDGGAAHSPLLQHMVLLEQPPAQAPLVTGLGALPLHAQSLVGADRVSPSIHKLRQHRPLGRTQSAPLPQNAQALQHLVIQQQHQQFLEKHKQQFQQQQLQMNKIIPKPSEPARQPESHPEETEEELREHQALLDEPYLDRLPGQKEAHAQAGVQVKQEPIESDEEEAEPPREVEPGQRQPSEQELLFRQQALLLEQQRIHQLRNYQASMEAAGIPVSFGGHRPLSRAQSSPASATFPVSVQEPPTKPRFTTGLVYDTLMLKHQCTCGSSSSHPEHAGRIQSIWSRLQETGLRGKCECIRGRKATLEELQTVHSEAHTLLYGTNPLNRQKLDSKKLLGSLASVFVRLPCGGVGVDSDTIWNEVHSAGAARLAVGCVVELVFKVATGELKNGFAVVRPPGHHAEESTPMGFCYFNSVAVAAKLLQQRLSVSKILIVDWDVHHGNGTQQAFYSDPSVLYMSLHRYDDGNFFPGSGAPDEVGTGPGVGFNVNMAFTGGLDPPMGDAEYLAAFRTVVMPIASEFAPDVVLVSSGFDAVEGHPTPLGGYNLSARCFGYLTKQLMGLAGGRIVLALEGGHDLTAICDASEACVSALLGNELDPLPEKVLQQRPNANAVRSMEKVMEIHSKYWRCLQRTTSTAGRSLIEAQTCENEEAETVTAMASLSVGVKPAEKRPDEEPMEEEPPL

Histone deacetylase 1 = Histone deacetylase 1 (Homo sapiens, UniProt Q13547)
Chain of Histone deacetylase 1 (Q13547 whole entry): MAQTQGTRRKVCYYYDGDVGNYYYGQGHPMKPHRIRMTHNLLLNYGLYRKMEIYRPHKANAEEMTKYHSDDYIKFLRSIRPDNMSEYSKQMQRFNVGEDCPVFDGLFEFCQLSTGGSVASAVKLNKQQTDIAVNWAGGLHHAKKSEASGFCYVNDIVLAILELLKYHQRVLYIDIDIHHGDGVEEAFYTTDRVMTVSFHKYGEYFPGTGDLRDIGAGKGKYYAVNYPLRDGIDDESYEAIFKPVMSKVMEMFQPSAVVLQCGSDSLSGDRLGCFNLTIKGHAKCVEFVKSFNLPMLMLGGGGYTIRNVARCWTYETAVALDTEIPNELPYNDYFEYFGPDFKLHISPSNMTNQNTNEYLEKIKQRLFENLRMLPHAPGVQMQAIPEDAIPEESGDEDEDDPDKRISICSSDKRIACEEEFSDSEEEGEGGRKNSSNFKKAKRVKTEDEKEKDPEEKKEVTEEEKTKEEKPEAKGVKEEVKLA

Structure (SMILES): CC1(C)NC(=O)[C@H](CCCCCC=O)NC(=O)[C@H]2CCCN2C(=O)[C@H](Cc2ccccc2)NC1=O [6-[(3S,9S,14aR)-9-benzyl-6,6-dimethyl-1,4,7,10-tetraoxo-tetradecahydropyrrolo[1,2-a][,,,]cyclododecan-3-yl]hexanal]
IC50 (Histone deacetylase 6): 14.1 µM
IC50 (Histone deacetylase 4): 1.29 µM
IC50 (Histone deacetylase 1): 4.33 µM

Structure (SMILES): CC1(C)NC(=O)[C@H](CCCCCC(O)CO)NC(=O)[C@H]2CCCN2C(=O)[C@H](Cc2ccccc2)NC1=O (stereo partly drawn) [(3S,9S,14aR)-9-benzyl-3-(6,7-dihydroxyheptyl)-6,6-dimethyl-tetradecahydropyrrolo[1,2-a][,,,]cyclododecane-1,4,7,10-tetrone]
IC50 (Histone deacetylase 6): > 100 µM
IC50 (Histone deacetylase 4): > 100 µM
IC50 (Histone deacetylase 1): > 100 µM

Structure (SMILES): CC1(C)NC(=O)[C@H](CCCCCC(=O)CBr)NC(=O)[C@H]2CCCN2C(=O)[C@H](Cc2ccccc2)NC1=O [(3S,9S,14aR)-9-benzyl-3-(7-bromo-6-oxoheptyl)-6,6-dimethyl-tetradecahydropyrrolo[1,2-a][,,,]cyclododecane-1,4,7,10-tetrone]
IC50 (Histone deacetylase 4): 0.0595 µM

Structure (SMILES): CC1(C)NC(=O)[C@H](CCCCCC(=O)CO)NC(=O)[C@H]2CCCN2C(=O)[C@H](Cc2ccccc2)NC1=O [(3S,9S,14aR)-9-benzyl-3-(7-hydroxy-6-oxoheptyl)-6,6-dimethyl-tetradecahydropyrrolo[1,2-a][,,,]cyclododecane-1,4,7,10-tetrone]
IC50 (Histone deacetylase 6): 0.887 µM
IC50 (Histone deacetylase 4): 0.0604 µM
IC50 (Histone deacetylase 1): 0.223 µM

IC50 (Histone deacetylase 6): > 100 µM
IC50 (Histone deacetylase 4): > 100 µM
IC50 (Histone deacetylase 1): > 100 µM
Structure (SMILES): C=CCCCCC[C@@H]1NC(=O)[C@H]2CCCN2C(=O)[C@H](Cc2ccccc2)NC(=O)C(C)(C)NC1=O [(3S,9S,14aR)-9-benzyl-3-(hept-6-en-1-yl)-6,6-dimethyl-tetradecahydropyrrolo[1,2-a][,,,]cyclododecane-1,4,7,10-tetrone] (HELM PEPTIDE1{[Aib].F.[dP].[C=CCCCCC[C@H](N[*:1])C(=O)[*:2]]}$PEPTIDE1,PEPTIDE1,1:R1-4:R2$$$V2.0)

Structure (SMILES): CC(=O)CCCCC[C@@H]1NC(=O)[C@H]2CCCN2C(=O)[C@H](Cc2ccccc2)NC(=O)C(C)(C)NC1=O [(3S,9S,14aR)-9-benzyl-6,6-dimethyl-3-(6-oxoheptyl)-tetradecahydropyrrolo[1,2-a][,,,]cyclododecane-1,4,7,10-tetrone]
IC50 (Histone deacetylase 6): 3.7 µM
IC50 (Histone deacetylase 4): 0.29 µM
IC50 (Histone deacetylase 1): 1.08 µM

Structure (SMILES): CC1(C)NC(=O)[C@H](CCCCCC2CO2)NC(=O)[C@H]2CCCN2C(=O)[C@H](Cc2ccccc2)NC1=O (stereo partly drawn) [(3S,9S,14aR)-9-benzyl-6,6-dimethyl-3-[5-(oxiran-2-yl)pentyl]-tetradecahydropyrrolo[1,2-a][,,,]cyclododecane-1,4,7,10-tetrone]
IC50 (Histone deacetylase 6): > 100 µM
IC50 (Histone deacetylase 4): 4.05 µM
IC50 (Histone deacetylase 1): 4.69 µM
